Test results taken from patent publication US20160318866A1, “SUBSTITUTED BIPIPERIDINYL DERIVATIVES” (Bayer Pharma Aktiengesellschaft, priority 2013, published 2016).

Tests used:
Wistar rat = test: Measurement of blood flow and blood pressure in rats (Wistar rats); type: in vivo; conditions: steady state, 32 min after start, vs initial flow, mean
Procedure: (§1) Wistar rats (Hsd Cpb:Wu) of a weight of 250-350 g or ZDF rats (ZDF/Crl-Lepr fa/fa) of a weight of 330-520 g were anaesthetized using 2.5% isoflurane in an oxygen/laughing gas mixture (40:60). To determine the blood flow in the carotid artery and the femoral artery, the anaesthetized rat was brought into a supine position, and the left carotid artery and the right femoral artery are then carefully exposed. Blood flow was measured by placing flow probes (Transonic Flowprobe) at the vessels. By introducing a PE50 artery catheter into the left femoral artery, blood pressure and heart rate were determined (Transducer Ref. 5203660: from Braun CH). The substances were administered as a bolus injection or a continuous infusion via a venous catheter in the left femoral vein.
(§2) Following the preparation of the animals, there was a 5 min baseline interval. Infusion of the AR alphα2C receptor antagonist was then started. In the steady state (32 min after the start of the experiment), the femoral flow was determined in relation (% difference) to the initial flow.

[1] = system: diabetic (ZDFfa/fa) and healthy rats (Wistar); test: Assay of perfusion-enhancing substances (microcirculation), laser doppler at the paw; type: in vivo, rat; conditions: single oral dose
From the text: In diabetic (ZDFfa/fa) and healthy rats (Wistar), a laser doppler probe was fastened under anaesthesia conditions (isoflurane anaesthesia) at the sole of the paw for measuring cutaneous microcirculation. The test animals were once treated orally with the test substances. During the experiment, microperfusion and temperature of the lower extremities were documented continuously. Here, a temperature-sensitive laser doppler probe (Periflux, O2C) was fastened with adhesive to the paws of the animals, allowing the measurement of microperfusion and skin temperature. The microcirculation measurement values were measured on both paws 30 min after oral administration of the test substance. […] Also stated is the MED for the significant increase of skin temperature (ttest).

ZDF rat = test: Measurement of blood flow and blood pressure in rats (ZDF rats); type: in vivo; conditions: for Change in the femoral flow in %: ZDF rat, steady state, 32 min after start, vs initial flow, mean
Procedure: as §1, §2

[2] = anaesthetized rats, same experiment as femoral flow, strain not specified

CC1CCCN(C2CCN(C(=O)c3ccc(C(C)(C)O)cc3)CC2)C1 (single isomer, unassigned) [Example 8, [4-(1-Hydroxy-1-methylethyl)phenyl)](3-methyl-1,4′-bipiperidin-1′-yl)methanone, (−)-enantiomer]
Change in the femoral flow in % (Wistar rat; 10 μg/kg/min): 14.2 (n = 3) %
Change in the femoral flow in % (Wistar rat; 30 μg/kg/min infusion): 3.1 (n = 5) %
Change in the femoral flow in % (Wistar rat; 300 μg/kg/min infusion): 15.3 (n = 5) %
factor by which microcirculation is improved at this dose compared to placebo ([1]; at the MED, 30 min after administration): 2.3 x
MED [mg/kg] skin temperature ([1]; minimum effective dose for significant increase of skin temperature (ttest)): 1 mg/kg
MED [mg/kg] microcirculation ([1]; minimum effective dose for significantly improved microcirculation vs placebo, 30 min after administration): 1 mg/kg
Change in the femoral flow in % (ZDF rat; 3 μg/kg/min infusion): 12.0 (n = 4) %
Change in the femoral flow in % (ZDF rat; 10 μg/kg/min infusion): 127.9%
Change in the femoral flow in % (ZDF rat; 30 μg/kg/min infusion): 144.4%
blood pressure (ZDF rat; [2]): no changes
heart rate (ZDF rat; [2]): no changes
